Measurements as given in patent US20140341922A1, “Method for Overcoming Tolerance to Targeted Anti-Cancer Agent” (SUN R&DB Foundation, priority 2011, published 2014).

Tests used:
[1] = test system: LN686, FADU, H226B, OSC19, and UMSCC38 cells; test: MTS cell proliferation, combined treatment in PCPs; format: cell-based, human; details: 7 days
Description: Cells were cultured in 96-well poly(poly-2-hydroxyethyl methacrylate [HEMA])-coated plates (PCPs) or ultra-low attached plates (UAPs). Control IgG1 (25 μg/ml), cixutumumab (25 μg/ml), PP2 (10 μM), and an integrin β3 neutralizing antibody B3A (10 μg/ml) were diluted in culture media containing 10% FBS or IGF-1 and treated alone or in combination. To examine the effect on cancer cell proliferation, a 3-(4,5-dimethylthiazol-2-yl)-2,5-diphenyltetrazolium bromide (MTT) or 3-(4,5-dimethylthiazol-2-yl)-5-(3-carboxymethoxyphenyl)-2-(4-sulfophenyl)-2H-tetrazolium (MTS) assay was performed, and to evaluate the effect on anchorage-independent colony formation, a soft agar colony formation assay was performed according to a method in our previous report (Morgillo et al., 2006).
In addition, the LN686, FADU, H226B, OSC19, and UMSCC38 cells grown in PCPs were untreated or treated with cixutumumab (25 μg/ml), anti-integrin β3 mAb (αβ3, 10 μg/ml), PP2 (10 μM), or a combination thereof for 7 days. Each bar represents the mean±SD of 6 wells treated with the same sample in one representative experiment.

[2] = test system: integrin β3/Src signaling; test: Western blot after integrin β3 or Src blockade; format: cell-based, human; set-up: p-EGFR, p-Src, and p-Akt levels: dose or concentration left out as unconfirmed
Description: Specifically, cixutumumab-resistant cells (LN686 and FADU) and cixutumumab-sensitive cells (OSC19) grown in PCPs were treated with B3A […] or PP2 […] for 1 hour prior to activation with IGF-1 (100 ng/ml).
In addition, the LN686 and FADU cells grown in the PCPs were untreated or treated with cixutumumab ([…]), PP2 (10 μM), an anti-integrin β1 monoclonal antibody (A11B2, 10 μg/ml), Ad-EV or Ad-CSK (10 pfu/cell) for 7 days prior to stimulation with IGF-1 (100 ng/ml, 30 min), and to detect the proteins, western blot analysis was performed.

CC(C)(C)n1nc(-c2ccc(Cl)cc2)c2c(N)ncnc21 [PP2]
antiproliferative activities of cixutumumab on combined treatment ([1]; cixutumumab-resistant cells (LN686, FADU, H226B)): significantly augmented | antiproliferative activities of cixutumumab on combined treatment ([1]; cixutumumab-sensitive cells (OSC19 and UMSCC38)): not | p-EGFR, p-Src, and p-Akt levels ([2]; LN686, FADU and OSC19, 6 h): marked decreases | cixutumumab-induced increases in p-Src, p-FAK, p-EGFR, p-Akt, and p-mTOR ([2]; LN686 or FaDu cells, integrin β3 mAb 100 μg/ml or PP2 10 μM): almost completely blocked
